Earlier results on two compounds are cited in patent US11433058B2, “Non-pulsatile prolonged-release betahistine oral solid compositions” (INTAS PHARMACEUTICALS LTD., priority 2017, dated 2022).

The conditions of data set [1]: per WO2014001267.
The conditions of data set [2]: oral; immediate release tablet or orodispersible tablet (Betaserc SmPC).

Each structure is given as a SMILES string. Counter-ions that a name gives are not always drawn.

As for `CNCCc1ccccn1` [Betahistine dihydrochloride], the water solubility in data set [1] is 49.3 mg/mL.

Consider `O=C(O)Cc1ccccn1` [Example 2-PAA, 2-pyridylacetic acid], for which, in data set [2], the absolute bioavailability result is “about 99%”.
